In brackets after ≈: the same amount, converted by molar mass.
Assays:
[1] = tested on: HT-29 human colon carcinoma cells; assay: Sulforhodamine B (SRB) cell viability assay, HT-29; format: cell-based; details: for IC50: Homo sapiens, HT-29, 72 h; for IC50 / IC50 HT-29: colon cancer cells, 72 h of treatment, SRB, mean ± SE of three experiments; for Selectivity Index (SI): IC50 for normal cells CCD 841 CoN / IC50 for cancer cells HT-29
Protocol: Cell viability was quantified using the Sulforhodamine B assay described by Skehan et al.. Cells were plated with a density of 5 × 10^3 (HT-29) and 1 × 10^4 (CCD 841 CoN) cells/well and allowed to attach at 37 °C in an atmosphere with 5% CO2. After 24 h, the AMTs dissolved in DMSO were added to the cells (final concentrations of 10, 20, 30, and 50 µg/mL and less than 0.05% of DMSO) and the plates were incubated for 72 h. Then, the cells were fixed by adding 50 μL of TCA (50%) to each well and the plates were maintained for 1 h at 4 °C. The plates were washed five times with deionized water, air-dried, and stained for 30 min at room temperature with 100 μL of 0.4% (w/v) SRB prepared in 1% (v/v) acetic acid. The plates were rinsed quickly five times with 1% acetic acid to remove unbound dye, followed by air-drying. The bound dye was solubilized in 2 mM Tris base (100 μL/well) for 5 min. Optical densities were read on a microplate reader (Spectrophotometer LabsystemsMultiskan EX, λ 492 nm). Three independent assays were conducted, each one in duplicate. A standard curve was constructed for each experiment and used for converting the measured optical density values into numbers of viable cells/well. The inhibition rate was used to evaluate the cell viability and its algorithm was the following formula: ((ODcontrol − ODtreatment)/ODcontrol) × 100; OD, optical density. The OD492 for control cells was taken as 100% viability. The half maximal inhibitory concentration (IC50) was calculated. The selectivity index (SI) of each compound was calculated as IC50 of the compound against the CCD 841 CoN normal cell line/IC50 of the same compound against the HT-29 cancer cell line.

[2] = tested on: p-AKT in HT-29 cells; assay: Western blot of phosphorylated AKT; format: cell-based, human; details: 24 h; 10 and 20 μg/mL for 1, 2, 5, 6, 7, 8; 30 and 60 μg/mL for 3 and 4
Protocol: (§1) Cells were cultured to 80% confluence at 37 °C. After 24 h of treatment with the compounds (10 and 20 µg/mL for compounds 1, 2, 5, 6, 7, and 8, and 30 and 60 µg/mL for compounds 3 and 4), HT-29 cells were rinsed twice with ice-cold PBS, and then lysed immediately in lysis buffer (250 mM NaCl, 50 mM Tris (pH 7.5), 0.5 mM EDTA, 5 mM EGTA, 8 mM MgCl2, 1 mM PMSF, 0.01 mg/mL pepstatin A, 0.01 mg/mL leupeptin, 0.01 mg/mL aprotinin, 1% Triton X-100). After centrifugation at 12,000 g for 3 min at 4°C to separate the cellular debris, the supernatant was collected and stored at −80°C until use. The protein concentrations were determined using Bio-Rad Protein Assay (BioRad, Richmond, CA, USA), according to the manufacturer’s instructions.
(§2) Equal protein content (50 μg) samples of cell lysates were separated on 10% SDS–polyacrylamide gel and transferred to polyvinylidene difluoride membranes (Hybond-P, Amershan Biosciences, Little Chalfont, UK). The membranes were blocked with 5% (w/v) non-fat dry milk in Tris-buffered saline containing 0.1% Tween-20 buffer (pH 7.4) (TBST) for 1 h at room temperature and incubated with agitation with specific antibodies: anti-pERK1/2 (Cell Signaling; 1:1000), anti-pJNK (Cell Signaling; 1:1000), anti-pAKT (Cell Signaling; 1:1000), anti-β-actin (Sigma-Aldrich; 1:500). Membranes were incubated overnight at 4°C with gentle shaking. The secondary antibody was a peroxidase-conjugated goat anti-mouse or -rabbit antibody (1:10,000; DakoCytomation, Carpinteria, CA, USA). After washing the membrane three times in TBST buffer (10 min), the signals were detected using an enhanced chemiluminescence light-detecting kit (Super-Signal West Pico Chemiluminescent Substrate, Pierce, IL, USA), according to the manufacturer’s instructions and exposed to an X-ray film (GE Healthcare Ltd., Amersham, UK). The protein band densities were analyzed and quantified with a Scientific Imaging Systems (Biophotonics ImageJ Analysis Software, National Institute of Mental Health, Bethesda, MD, USA). β-actin was used to confirm the equal loading and transfer of proteins.

[3] = tested on: p-ERK1/2 in HT-29 cells; assay: Western blot of phosphorylated ERK1/2; format: cell-based, human; details: 24 h; 10 and 20 μg/mL
Protocol: as §1, §2

[4] = tested on: HT-29 colon cancer cells; assay: Annexin V-FITC/PI flow cytometry apoptosis induction assay; format: cell-based, human; details: 24 h; for necrosis (dead cells): 30 μg/mL
Protocol: Quantitative assessment of apoptosis was performed by flow cytometry using an Annexin V-FITC Apoptosis Detection Kit. Briefly, 1 × 10^6 HT-29 cells were seeded per well in six-well plates and incubated for 24 h, followed by the addition of the AMTs dissolved in DMSO (final concentrations of 10, 20, and 30 µg/mL for compounds 1, 2, 5, 6, 7, and 8, and 30, 60, and 90 µg/mL for compounds 3 and 4, and less than 0.05% DMSO) and incubation for 24 h. Curcumin (final concentrations of 50 and 75 μM) was used as positive control. The cells were then washed, harvested with trypsin, and centrifuged at 1500 rpm (5 min, 25 °C). The pellet was resuspended in 195 µL of 1 × Annexin buffer and then stained with 5 μL of Annexin V-FITC and 10 μL of PI for 10 min at room temperature, in the dark. To this mixture 200 μL of 1 × Annexin buffer was added before analysis using a Cytomics FC500 flow cytometer (Beckman Coulter, Indianapolis, IN, USA). Following a gating strategy, flow cytometry plots of size (FS) and complexity (SS) of the HT-29 cells were previously established for the elaboration of a measurement protocol. The normal healthy cells, early apoptosis, late apoptosis, and necrotic populations were represented by annexin V-negative/PI-negative population, annexin V-positive/PI-negative, annexin V-positive/PI-positive and annexin-negative/PI-positive cells, respectively. A total of 10,000 cellular events in each sample were analyzed using DML program.

[5] = tested on: p-JNK in HT-29 cells; assay: Western blot of phosphorylated JNK; format: cell-based, human; details: 24 h; 10 and 20 μg/mL for 1, 2, 5, 6, 7, 8; 30 and 60 μg/mL for 3 and 4
Protocol: as §1, §2

SMILES | IC50 [1] [µg/mL] | Selectivity Index (SI) [1] | expression of p-AKT protein vs control [2] | p-ERK1/2 level vs control [3] | necrosis (dead cells) [4] [%] | phospho-JNK level vs control [5] | early apoptotic cells ([4]; 30 μg/mL (Figure 3B)) [%] | late apoptotic cells ([4]; 30 μg/mL (Figure 3B)) [%] | viability at 30 µg/mL ([4]; Homo sapiens, HT-29, 30 μg/mL (Figure 3B), read-out: viable cells) [%] | IC50 HT-29 [1] [µg/mL] | early apoptotic cells (Annexin V+PI-) ([4]; 90 μg/mL) [%] | late apoptotic cells (Annexin V+PI+) ([4]; 90 μg/mL) [%] | total percentage of apoptotic cells ([4]; 90 μg/mL) [%] | induction of apoptosis or death of HT-29 cells ([4]; 4 tested at 30-90 μg/mL, 7 at 10-30 μg/mL)
COc1c(C)cc(O)cc1C/C=C(\C)CC(=O)/C=C(/C)CCCC(C)(O)C(=O)/C=C/C(C)(C)O (stereo not shown) [Compound 1, usneoidone Z] | 8.81 ± 1.55 (≈ 18.6 µM) | 5.26 | significantly downregulated | significantly reduced | 31.22 |  |  |  |  |  |  |  |  | 
COc1c(C)cc(O)cc1C/C=C(\C)CC(=O)/C=C(\C)CCCC(C)(O)C(=O)/C=C/C(C)(C)O (stereo not shown) [Compound 2, 11-hydroxy-1′-O-methylamentadione] | 9.14 ± 0.23 (≈ 19.3 µM) | 2.34 | significantly downregulated | significantly reduced |  | decreased phosphorylation | 1.94 | 12.94 | 57.7 |  |  |  |  | 
COc1c(C)cc(O)cc1C/C=C(\C)CC(=O)/C=C(\C)CCCC(C)=O [Compound 3, cystomexicone B] | 36.9 (≈ 103 µM) | >1.45 | significantly downregulated |  |  | decreased phosphorylation |  |  |  | 34.34 ± 1.81 (≈ 95.8 µM) | 4.47 | 52.12 | 56.6 | 
COc1c(C)cc(O)cc1/C=C/C(C)(O)CC(=O)/C=C(/C)CCCC(C)C(=O)/C=C/C(C)(C)O (stereo not shown) [Compound 7, cystodione A] | 14 ± 1.33 (≈ 29.6 µM) | >3.57 | significantly downregulated | significantly reduced |  | decreased phosphorylation |  |  |  |  |  |  |  | did not induce neither apoptosis nor death
COc1c(C)cc(O)cc1/C=C/C(C)(O)CC(=O)/C=C(\C)CCCC(C)C(=O)/C=C/C(C)(C)O (stereo not shown) [Compound 8, cystodione B] | 9.14 (≈ 19.3 µM) | 3.51 | significantly downregulated | significantly reduced | 20.12 | decreased phosphorylation |  |  |  | 9.08 ± 1.04 (≈ 19.2 µM) |  |  |  | 

Source: paper PMC7143549, “Anticancer Activities of Meroterpenoids Isolated from the Brown Alga Cystoseira usneoides against the Human Colon Cancer Cells HT-29” (Foods, 2020)
